# Source: ChEMBL document CHEMBL5726336, “Arylquinazolines” (2017)
# Biological target: DNA-dependent protein kinase catalytic subunit (Homo sapiens, UniProt P78527)
# Assay: Biochemical Assay: The kinase assay was carried out in streptavidin-coated […] microtitre flashplates. […] The reaction was stopped using 50 ul/well of 200 mM EDTA. After incubation for a further 30 min at room temperature, the liquid was removed. Each well was washed three times with 100 ul of 0.9% saline solution. A nonspecific reaction (blank value) was determined using 10 uM of an innate kinase inhibitor. The radioactivity measurement was carried out using a TopCount. IC50 values were calculated in RS1.
# Chain of DNA-dependent protein kinase catalytic subunit (P78527 whole entry): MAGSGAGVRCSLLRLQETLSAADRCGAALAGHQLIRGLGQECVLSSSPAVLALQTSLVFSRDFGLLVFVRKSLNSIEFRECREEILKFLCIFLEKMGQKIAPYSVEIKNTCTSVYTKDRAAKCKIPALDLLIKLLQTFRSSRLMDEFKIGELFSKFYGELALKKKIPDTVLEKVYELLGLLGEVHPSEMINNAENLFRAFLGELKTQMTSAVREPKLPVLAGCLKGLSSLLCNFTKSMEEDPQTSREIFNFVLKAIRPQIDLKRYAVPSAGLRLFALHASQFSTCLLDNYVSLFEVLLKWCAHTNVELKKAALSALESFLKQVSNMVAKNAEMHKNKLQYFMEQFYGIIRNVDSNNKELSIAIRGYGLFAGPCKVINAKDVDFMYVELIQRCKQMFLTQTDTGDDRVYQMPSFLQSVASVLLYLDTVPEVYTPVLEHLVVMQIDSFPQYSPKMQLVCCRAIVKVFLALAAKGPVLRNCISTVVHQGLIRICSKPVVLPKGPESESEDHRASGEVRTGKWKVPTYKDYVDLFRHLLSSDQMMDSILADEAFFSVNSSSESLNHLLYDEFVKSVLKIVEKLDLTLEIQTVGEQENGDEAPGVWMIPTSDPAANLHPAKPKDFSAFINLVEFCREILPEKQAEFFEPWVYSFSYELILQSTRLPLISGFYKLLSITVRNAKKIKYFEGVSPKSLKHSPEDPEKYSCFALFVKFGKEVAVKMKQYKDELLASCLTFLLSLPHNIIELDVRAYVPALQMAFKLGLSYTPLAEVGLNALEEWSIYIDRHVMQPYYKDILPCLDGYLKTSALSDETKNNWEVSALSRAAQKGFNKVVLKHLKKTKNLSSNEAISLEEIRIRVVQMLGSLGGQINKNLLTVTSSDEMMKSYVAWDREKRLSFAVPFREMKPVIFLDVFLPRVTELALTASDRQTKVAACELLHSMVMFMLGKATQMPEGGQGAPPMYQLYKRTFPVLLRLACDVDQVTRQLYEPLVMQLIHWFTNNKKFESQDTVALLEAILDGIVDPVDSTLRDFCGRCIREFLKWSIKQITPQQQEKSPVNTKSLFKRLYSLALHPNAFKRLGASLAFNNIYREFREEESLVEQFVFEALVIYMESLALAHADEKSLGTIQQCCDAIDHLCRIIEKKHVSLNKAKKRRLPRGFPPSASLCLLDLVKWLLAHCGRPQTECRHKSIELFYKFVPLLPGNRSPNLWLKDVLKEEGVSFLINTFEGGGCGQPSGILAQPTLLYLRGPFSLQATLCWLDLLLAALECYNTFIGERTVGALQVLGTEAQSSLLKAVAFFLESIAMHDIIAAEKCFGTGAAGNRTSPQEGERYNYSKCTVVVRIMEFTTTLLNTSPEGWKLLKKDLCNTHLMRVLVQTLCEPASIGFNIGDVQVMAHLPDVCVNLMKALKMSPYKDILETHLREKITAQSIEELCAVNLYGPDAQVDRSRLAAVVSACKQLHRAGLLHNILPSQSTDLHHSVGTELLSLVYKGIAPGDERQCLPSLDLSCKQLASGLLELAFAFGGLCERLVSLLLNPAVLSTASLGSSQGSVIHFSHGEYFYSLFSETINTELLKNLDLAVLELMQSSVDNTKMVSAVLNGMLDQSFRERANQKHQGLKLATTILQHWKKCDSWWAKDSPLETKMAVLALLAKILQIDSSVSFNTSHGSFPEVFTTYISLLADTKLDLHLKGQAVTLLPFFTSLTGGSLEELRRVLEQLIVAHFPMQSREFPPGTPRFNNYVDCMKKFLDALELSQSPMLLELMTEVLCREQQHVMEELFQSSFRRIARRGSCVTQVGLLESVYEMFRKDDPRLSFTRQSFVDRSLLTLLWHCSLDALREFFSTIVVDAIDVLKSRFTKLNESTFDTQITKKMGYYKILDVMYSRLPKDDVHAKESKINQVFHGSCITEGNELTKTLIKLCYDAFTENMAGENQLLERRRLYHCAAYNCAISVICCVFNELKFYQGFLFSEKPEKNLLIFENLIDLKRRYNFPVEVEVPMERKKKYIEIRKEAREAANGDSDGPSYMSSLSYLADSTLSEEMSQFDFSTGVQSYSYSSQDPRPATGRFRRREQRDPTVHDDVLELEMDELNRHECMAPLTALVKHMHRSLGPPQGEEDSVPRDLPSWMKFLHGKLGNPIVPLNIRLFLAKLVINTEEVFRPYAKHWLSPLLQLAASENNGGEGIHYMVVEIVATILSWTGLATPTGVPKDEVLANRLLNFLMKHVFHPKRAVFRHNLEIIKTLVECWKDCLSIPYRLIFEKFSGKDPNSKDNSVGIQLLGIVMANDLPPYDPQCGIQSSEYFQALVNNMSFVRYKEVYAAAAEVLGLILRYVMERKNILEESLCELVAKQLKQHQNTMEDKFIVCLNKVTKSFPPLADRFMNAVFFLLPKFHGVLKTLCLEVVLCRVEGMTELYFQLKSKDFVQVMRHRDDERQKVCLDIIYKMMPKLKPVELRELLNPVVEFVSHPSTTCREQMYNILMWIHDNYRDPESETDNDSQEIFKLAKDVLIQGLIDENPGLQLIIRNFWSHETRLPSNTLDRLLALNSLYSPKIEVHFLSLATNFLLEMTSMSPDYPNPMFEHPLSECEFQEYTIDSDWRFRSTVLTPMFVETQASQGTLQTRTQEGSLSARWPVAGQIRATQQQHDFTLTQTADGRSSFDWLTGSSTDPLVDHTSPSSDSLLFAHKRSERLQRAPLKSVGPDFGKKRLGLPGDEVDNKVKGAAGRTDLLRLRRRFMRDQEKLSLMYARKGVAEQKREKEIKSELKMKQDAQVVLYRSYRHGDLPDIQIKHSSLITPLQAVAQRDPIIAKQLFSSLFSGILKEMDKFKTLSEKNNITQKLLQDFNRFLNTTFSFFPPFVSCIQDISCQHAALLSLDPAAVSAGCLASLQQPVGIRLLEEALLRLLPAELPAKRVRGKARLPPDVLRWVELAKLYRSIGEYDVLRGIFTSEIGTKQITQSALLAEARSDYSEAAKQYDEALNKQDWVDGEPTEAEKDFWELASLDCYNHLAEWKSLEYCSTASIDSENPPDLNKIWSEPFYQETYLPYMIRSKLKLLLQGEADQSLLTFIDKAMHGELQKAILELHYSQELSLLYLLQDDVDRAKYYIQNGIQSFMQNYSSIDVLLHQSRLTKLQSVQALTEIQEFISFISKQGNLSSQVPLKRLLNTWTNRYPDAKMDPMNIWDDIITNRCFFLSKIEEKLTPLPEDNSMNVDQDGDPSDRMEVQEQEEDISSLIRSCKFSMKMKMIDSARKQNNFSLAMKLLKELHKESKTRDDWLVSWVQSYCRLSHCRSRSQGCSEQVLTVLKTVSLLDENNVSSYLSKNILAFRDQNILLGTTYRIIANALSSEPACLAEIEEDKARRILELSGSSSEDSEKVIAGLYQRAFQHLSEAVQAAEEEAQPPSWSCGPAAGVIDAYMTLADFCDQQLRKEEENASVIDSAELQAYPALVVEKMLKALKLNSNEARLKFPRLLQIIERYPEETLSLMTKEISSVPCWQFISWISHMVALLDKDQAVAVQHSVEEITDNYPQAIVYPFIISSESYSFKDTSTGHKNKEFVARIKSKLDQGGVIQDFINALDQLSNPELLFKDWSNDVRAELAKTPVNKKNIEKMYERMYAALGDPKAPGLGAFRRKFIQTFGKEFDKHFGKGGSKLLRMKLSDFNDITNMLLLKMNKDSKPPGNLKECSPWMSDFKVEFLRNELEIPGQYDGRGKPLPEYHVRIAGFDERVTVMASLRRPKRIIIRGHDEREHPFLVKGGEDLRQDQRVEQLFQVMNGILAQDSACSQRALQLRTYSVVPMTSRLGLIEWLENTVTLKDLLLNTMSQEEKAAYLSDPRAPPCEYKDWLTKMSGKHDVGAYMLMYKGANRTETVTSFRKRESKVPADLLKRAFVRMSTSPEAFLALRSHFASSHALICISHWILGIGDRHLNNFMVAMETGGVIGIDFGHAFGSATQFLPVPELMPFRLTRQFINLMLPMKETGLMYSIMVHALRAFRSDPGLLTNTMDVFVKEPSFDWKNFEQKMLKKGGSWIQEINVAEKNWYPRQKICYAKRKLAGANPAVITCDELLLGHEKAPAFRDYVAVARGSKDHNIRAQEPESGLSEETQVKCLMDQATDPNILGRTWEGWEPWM
compound,measurement,value
CCNCc1csc(C(O)c2cc(-c3ncnc4cc(N5CCOCC5)ccc34)c(F)cc2Cl)n1 (stereo unspecified),IC50,7 to 30 nM
